Source: patent US9109041B2, “Analog compounds of analgesic peptides derived from the venom of crotalus durissus terrificus snakes, their uses, compositions, methods of preparation and purification” (priority 2004, dated 2015)

Test system: allodynia induced by constriction of the sciatic nerve
Test: allodynia induced by chronic constriction of the sciatic nerve (von Frey hairs)
Assay type: in vivo, rat
Details: for paw withdrawal threshold (allodynia), BM: before surgery; for paw withdrawal threshold (allodynia), FM 1 h: day 14, 1 h after peptide; for paw withdrawal threshold (allodynia), FM 3 h: day 14, 3 h after peptide; for paw withdrawal threshold (allodynia), FM 24 h: day 14, 24 h after peptide; for paw withdrawal threshold (allodynia), FM 48 h: day 14, 48 h after peptide; for paw withdrawal threshold (allodynia), FM 72 h: day 14, 72 h after peptide; for paw withdrawal threshold (allodynia), FM 96 h: day 14, 96 h after peptide; for paw withdrawal threshold (allodynia), IM: day 14 after surgery, before peptide
Description: For the induction of neuropathic pain, surgery was performed in the sciatic nerve, in accordance with the method described by Bennett, G. J and Xie, Y. K. (Pain, 33:87-107, 1988). The animals were anesthetized with halothane. The sciatic nerve was exposed in the middle region of the thigh, moving away the femoral biceps muscle. Close to the trifurcation of the sciatic nerve, 7 mm of distance from the trifurcation, 4 loose ligations were performed (chromed catgut 4-0) around it, distant from each other in approximately 1 mm. The bindings were performed along the nerve, up to 4-5 mm from the initial point. The incision was sutured in layers, using silk suture thread number 4-0.
Allodynia was evaluated for quantitative testing, in response to tactile stimulus applied to the paws of the rat, according to the method described by Chaplan el al. (1994), modified. In this test, the rats were placed, individually, in plastic cages, with meshed wire at the bottom, to allow access to the paws of these animals. Briefly, a logarithmic series of 10 calibrated Semmes-Weinstein monofilaments (von Frey hairs, Aesthesiometer Semmer-Weinstein, Stoelting Co., E.U.A) was applied to the right hind paw to determine the stimulus intensity threshold stiffness required to elicit a paw withdrawal response. Log stiffness of the hairs is determined by log 10 (mg×10) having the following values (the value in grams is between parenthesis): 3.61 (0.407 g); 3.84 (0.692 g); 4.08 (1.202 g); 4.17 (1.479 g); 4.31 (2.041 g); 4.56 (3.630 g); 4.74 (5.495 g); 4.93 (8.511 g); 5.07 (11.749 g) and 5.18 (15.136 g). It is important to point out that the filaments with weight greater than 15.136 g were not employed in the studies of allodynia.
The filaments were applied, one by one, perpendicularly, under the plantar area of both hind paws and maintained for a period of 8 seconds. The filament capable of eliciting the withdrawal of the paw, two consecutive times, was considered as the force in grams necessary to elicit the response (100% of response). In the absence of a response to the greater stimulus (15.135 g), this filament was considered as cut value.
The behavioral responses were used to calculate the 50% paw withdrawal threshold (absolute threshold), by fitting a gaussian integral psychometric function, using a maximum-likelihood fitting method. This fitting method allows parametric analyses.
The period of the application of the test and the treatments were the same as those used for determination of hyperalgesia (Table 12).
The results were analyzed by comparing the means of the basal and initial measurements or, when determined, by comparing the means obtained in the different experimental groups.
For this purpose, the animals were treated with CTOP, a specific μ receptor antagonist (20 μg/paw), nor-BNI, a specific κ receptor antagonist (50 μg/paw) or with ICI 174,864, a specific δ receptor antagonist (10 μg/paw). The antagonists were injected, by intraplantar route. The peptide was administered in the dose of 5 μg/kg, orally, immediately before the injection of the opioid antagonists.
The results were analyzed comparing the mean values of the basal and initial measurements, or of the initial and final measurements or, when determined, by comparing the mean values obtained in the different experimental groups (Tables 15 and 16).

Xaa-Phe-Ser-Pro-Glu-Asn-Cys-Gln-Gly-Glu-Ser-Gln-Pro-Cys [SEQ ID NO: 2]
5.02 ± 0.03 log 10 (mg × 10): paw withdrawal threshold (allodynia), BM (0.0016 μg/kg p.o.)
4.41 ± 0.00 log 10 (mg × 10): paw withdrawal threshold (allodynia), FM 1 h (0.2 μg/kg p.o.) | paw withdrawal threshold (allodynia), FM 3 h (0.2 μg/kg p.o.) | paw withdrawal threshold (allodynia), FM 24 h (0.2 μg/kg p.o.) | paw withdrawal threshold (allodynia), FM 48 h (0.2 μg/kg p.o.) | paw withdrawal threshold (allodynia), FM 72 h (0.2 μg/kg p.o.)
5.03 ± 0.02 log 10 (mg × 10): paw withdrawal threshold (allodynia), BM (0.2 μg/kg p.o.)
4.26 ± 0.04 log 10 (mg × 10): paw withdrawal threshold (allodynia), FM 48 h (0.04 μg/kg p.o.)
4.22 ± 0.00 log 10 (mg × 10): paw withdrawal threshold (allodynia), FM 1 h (0.0016 μg/kg p.o.) | paw withdrawal threshold (allodynia), FM 3 h (0.0016 μg/kg p.o.) | paw withdrawal threshold (allodynia), FM 24 h (0.0016 μg/kg p.o.) | paw withdrawal threshold (allodynia), FM 48 h (0.0016 μg/kg p.o.) | paw withdrawal threshold (allodynia), FM 72 h (0.0016 μg/kg p.o.) | paw withdrawal threshold (allodynia), FM 96 h (0.0016 μg/kg p.o.) | paw withdrawal threshold (allodynia), IM (0.0016 μg/kg p.o.) | paw withdrawal threshold (allodynia), FM 1 h (0.008 μg/kg p.o.) | paw withdrawal threshold (allodynia), FM 3 h (0.008 μg/kg p.o.) | paw withdrawal threshold (allodynia), FM 24 h (0.008 μg/kg p.o.) | paw withdrawal threshold (allodynia), FM 48 h (0.008 μg/kg p.o.) | paw withdrawal threshold (allodynia), FM 72 h (0.008 μg/kg p.o.) | paw withdrawal threshold (allodynia), FM 96 h (0.008 μg/kg p.o.) | paw withdrawal threshold (allodynia), IM (0.008 μg/kg p.o.) | paw withdrawal threshold (allodynia), FM 1 h (0.04 μg/kg p.o.) | paw withdrawal threshold (allodynia), FM 3 h (0.04 μg/kg p.o.) | paw withdrawal threshold (allodynia), FM 24 h (0.04 μg/kg p.o.) | paw withdrawal threshold (allodynia), FM 72 h (0.04 μg/kg p.o.) | paw withdrawal threshold (allodynia), FM 96 h (0.04 μg/kg p.o.) | paw withdrawal threshold (allodynia), IM (0.04 μg/kg p.o.) | paw withdrawal threshold (allodynia), FM 96 h (0.2 μg/kg p.o.) | paw withdrawal threshold (allodynia), IM (0.2 μg/kg p.o.)
4.97 ± 0.99 log 10 (mg × 10): paw withdrawal threshold (allodynia), BM (0.04 μg/kg p.o.)
4.62 ± 0.00 log 10 (mg × 10): paw withdrawal threshold (allodynia), FM 1 h (1 μg/kg p.o.) | paw withdrawal threshold (allodynia), FM 3 h (1 μg/kg p.o.) | paw withdrawal threshold (allodynia), FM 24 h (1 μg/kg p.o.) | paw withdrawal threshold (allodynia), FM 48 h (1 μg/kg p.o.)
4.99 ± 0.02 log 10 (mg × 10): paw withdrawal threshold (allodynia), BM (0.008 μg/kg p.o.)
5.06 ± 0.02 log 10 (mg × 10): paw withdrawal threshold (allodynia), BM (1 μg/kg p.o.)
